Source: paper PMC3610872, “Full and Partial Agonists of Thromboxane Prostanoid Receptor Unveil Fine Tuning of Receptor Superactive Conformation and G Protein Activation” (PLoS ONE, 2013)
Changes are numbered by the printed parent chain. Values joined by “and” are separate entries in the source; they are usually repeats but may differ in a detail not shown here. Equal values may be shown once.

Experiments:
[1] = target: T1, E129V mutant human TP receptor (Homo sapiens, UniProt P21731, E129V); test: [3H]SQ29,548 radioligand binding (mixed-type and heterologous competition), E129V mutant; conditions: HEK293 cells
T1 construct: expressed in transfected cells; host or cells: HEK293
T1 sequence (P21731 1-343 E129V): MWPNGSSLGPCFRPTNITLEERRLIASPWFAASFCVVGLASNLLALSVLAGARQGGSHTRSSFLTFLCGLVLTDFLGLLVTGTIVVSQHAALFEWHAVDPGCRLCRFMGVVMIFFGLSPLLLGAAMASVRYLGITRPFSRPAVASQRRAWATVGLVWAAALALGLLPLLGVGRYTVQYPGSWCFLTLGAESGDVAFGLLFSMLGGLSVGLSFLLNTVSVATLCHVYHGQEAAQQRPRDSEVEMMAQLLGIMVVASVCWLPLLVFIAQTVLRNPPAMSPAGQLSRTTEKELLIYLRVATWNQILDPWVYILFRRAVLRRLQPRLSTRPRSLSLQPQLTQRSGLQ
Procedure: (§1) Receptor expression and functional activity were monitored 48 hours after transfection. […] Heterologous competition studies involved concentrations of the indicated unlabeled ligands extending from 0.1 nM to 30 µM. After 30 min incubation at 25 °C, the reaction was stopped by aspiration of the medium, cells were washed with ice-cold PBS containing 0.2% (w/v) BSA and lysed in 0.5 N NaOH. Radioactivity was measured by liquid scintillation counting. Binding data were analyzed as described in Data and Statistical Analysis. Quantification of the total labeled inositol phosphates (IP) accumulation was performed using a conventional gravity flow column chromatography, as described previously, [19]. Briefly, the day before the assay, cells were labeled with 0,5 µCi of [myo-2-^3H]inositol (17 Ci/mmol) for 18–20 hours in serum-free, inositol-free DMEM containing 20 mM HEPES buffer, pH 7.4, and 0.5% (w/v) Albumax I. The day of the assay, media was replaced with serum-free, inositol-free DMEM containing 25 mM LiCl and cells stimulated for 30 min with the indicated agonists. After removal of the medium, cells were lysed with 10 mM formic acid and lysates were applied onto an anion exchange AG 1X-8 column, formate form, 200–400 mesh. The total IP fraction was then eluted with 2 M ammonium formate/formic acid buffer at pH 5 and radioactivity determined by liquid scintillation counting. Rescue experiments were performed essentially as above, except for a 18 hours incubation step with 1 µΜof […] followed by its removal by washing three times with ice-cold PBS containing 1 mM MgCl2 and 0.1 mM CaCl2 before starting the experiment.
(§2) All average results are presented as mean±S.E. When indicated, ANOVA followed by post-hoc test for multiple comparisons was performed. Data from radioligand binding were evaluated by a nonlinear, least-squares curve-fitting procedure using GraphPad Prism version 4, implemented with the n-ligand m-binding site model, as described in the LIGAND computer program. Concentration-response curves were evaluated using Prism 4, which use the four parameters logistic model as described in the ALLFIT program. Parameter errors are all expressed in percentage coefficient of variation (%CV) and calculated by simultaneous analysis of at least two different independent experiments performed in duplicate or triplicate. Parameter comparison has been performed on the base of the F test for extra sum of square principle. All curves shown are computer generated.
Thus, transfection conditions were adjusted to secure equivalent levels of receptor expression for WT and mutants as previously described, [17], [19]. […] All the experiments were conducted within this range of receptor expression, if not specified differently.

WT human TP receptor [2] = target: T2, WT human TP receptor (Homo sapiens, UniProt P21731); test: Total inositol phosphate (IP) accumulation, WT receptor; format: cell-based; conditions: HEK293 cells, 30 min stimulation, value ±%CV
T2 construct: expressed in transfected cells; host or cells: HEK293
T2 sequence (P21731 1-343): T1 sequence (P21731 1-343 E129V) with V129E
Procedure: as §1, §2

[3] = target: T1, E129V mutant human TP receptor; test: BRET2 measurement of Gq protein activation, E129V mutant; format: cell-based; conditions: HEK293 cells
Procedure: as §2

WT human TP receptor [4] = target: T2, WT human TP receptor; test: BRET2 measurement of Gq protein activation, WT receptor; format: cell-based; conditions: HEK293 cells, value ±%CV
From the text: HEK 293 cells were co-transfected with vectors expressing the GFP^10-Gγ2, Gβ1, Gαq-Rluc8 and WT or E129V mutant of TP receptor to investigate direct G protein activation with an intramolecular bioluminescent resonance energy transfer (BRET^2) strategy. To avoid possible variations in the BRET signaling resulting from fluctuation in the relative expression levels of the energy donor and acceptor, we designed transfection conditions to maintain constant GFP^10 and Rluc8 expression and their ratios in each experimental set. Total fluorescence and luminescence were directly determined in an aliquot of the transfected cells using an Infinite F500 microplate reader (Tecan, Milan, Italy) as previously described. […] 48 hours after transfection, cells were washed once with PBS, detached, and resuspended in PBS+0.1% (w/v) glucose at room temperature. Cells were then distributed (80 µg of proteins per well) into a 96-well microplate (Wallac, Perkin Elmer, Monza, Italy) and incubated in the presence or absence of increasing concentrations of ligands for 2 min before the addition of the luciferase substrate Coelenterazine 400a (5 µM; Biotium, Hayward, CA). BRET signal between Rluc8 and GFP^10 was measured immediately after the addition of the Rluc substrate in the microplate reader. The BRET signal was calculated as the ratio of the light emitted by GFP^10 (510–540 nm) over the light emitted by Rluc8 (370–450 nm). The changes in BRET induced by the ligands were expressed as Òagonist-induced BRETÓ, obtained by subtracting the BRET signal detected in the presence of PBS by the BRET signal detected in the presence of the specific ligand.
as §2
This recorded real time conformational changes between the α and the βγ subunits within the Gq protein, where a decrease of the BRET signal provoked by agonist-induced receptor activation is indicative of a conformational reorganization leading the Gα-Gβγ interface to open, reflects the initial event of Gq protein activation, [23] (Figure 6A).

[5] = target: T1, E129V mutant human TP receptor; set-up: method as in PMID 20383734; conditions: E129V vs WT; cited from earlier work

CCCCC[C@H](O)/C=C/[C@@H]1[C@@H](C/C=C\CCCC(=O)O)[C@H]2CO[C@@H]1C2 (relative stereo) [U46619, [1R-[1α,4α,5β(Z),6α(1E,3S*)]]-7-[6-(3-hydroxy-1-octenyl)-2-oxabicyclo[2.2.1]hept-5-yl]-5-heptenoic acid]
Ki ([1]; E129V, competition vs 1 nM [3H]SQ29,548, 25°C 30 min, value ±%CV): 16.3 ± 18 nM
Affinity ratio (Ki WT over Ki E129V) ([1]; WT vs E129V): 10 and 10.4
Emax, total IP (WT human TP receptor [2]; no Gαq overexpression): 12374±8 dpm/well
EC50 (WT human TP receptor [2]): 98.7 ± 70 nM
EC50 ([3]; E129V, Gαq-Rluc8/GFP10-Gγ2/Gβ1, 2 min ligand, value ±%CV): 4.53 nM
Activity ratio (EC50 WT over EC50 E129V), BRET ([3]; WT vs E129V): 76
EC50 (WT human TP receptor [4]; Gαq-Rluc8/GFP10-Gγ2/Gβ1, 2 min ligand): 345 ± 14 nM
Emax, agonist-induced BRET (WT human TP receptor [4]): −0.07±3
Fold lower EC50 than WT, total IP formation [5]: 10 fold
